Measured values from PubChem BioAssay AID2060607 (Molecular Pharmacology Branch, DTP, NCI, 2025).
“And” between values parts separate entries of the source, which are not always exact repeats. Equal values may be shown once.

System: 876862-298-R-J1-PDC complex spheroids, viability % test/control
Assay: Anticancer human tumor 876862-298-R-J1-PDC patient-derived endometrial carcinoma cell line growth inhibition [CLK]
Conditions: for viability, T/C: stronger effect = lower value; active means viability on the fitted dose curve at most 10% of control; inactive means the rest
How it was run: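 Multi-cell-type spheroids combined patient-derived tumor cells with HUVEC endothelial cells and human mesenchymal stem cells. Paired agents were dosed in half-log steps down from about clinical Cmax, or from 10 microM where Cmax was unknown.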

[1] = curve of first compound, second compound 0.0316 µM
[2] = curve of first compound, second compound 0.1 µM
[3] = curve of first compound, second compound 0.316 µM
[4] = curve of first compound, second compound 1 µM
[5] = curve of first compound, second compound 3.16 µM
[6] = curve of first compound, second compound 10 µM
[7] = second compound 0.0316 µM, first compound 0.0316 µM
[8] = second compound 0.0316 µM, first compound 0.1 µM
[9] = second compound 0.0316 µM, first compound 0.316 µM
[10] = second compound 0.0316 µM, first compound 1 µM
[11] = second compound 0.0316 µM, first compound 3.16 µM
[12] = second compound 0.0316 µM, first compound 10 µM
[13] = second compound 0.1 µM, first compound 0.0316 µM
[14] = second compound 0.1 µM, first compound 0.1 µM
[15] = second compound 0.1 µM, first compound 0.316 µM
[16] = second compound 0.1 µM, first compound 1 µM
[17] = second compound 0.1 µM, first compound 3.16 µM
[18] = second compound 0.1 µM, first compound 10 µM
[19] = second compound 0.316 µM, first compound 0.0316 µM
[20] = second compound 0.316 µM, first compound 0.1 µM
[21] = second compound 0.316 µM, first compound 0.316 µM
[22] = second compound 0.316 µM, first compound 1 µM
[23] = second compound 0.316 µM, first compound 3.16 µM
[24] = second compound 0.316 µM, first compound 10 µM
[25] = second compound 1 µM, first compound 0.0316 µM
[26] = second compound 1 µM, first compound 0.1 µM
[27] = second compound 1 µM, first compound 0.316 µM
[28] = second compound 1 µM, first compound 1 µM
[29] = second compound 1 µM, first compound 3.16 µM
[30] = second compound 1 µM, first compound 10 µM
[31] = second compound 3.16 µM, first compound 0.0316 µM
[32] = second compound 3.16 µM, first compound 0.1 µM
[33] = second compound 3.16 µM, first compound 0.316 µM
[34] = second compound 3.16 µM, first compound 1 µM
[35] = second compound 3.16 µM, first compound 3.16 µM
[36] = second compound 3.16 µM, first compound 10 µM
[37] = second compound 10 µM, first compound 0.0316 µM
[38] = second compound 10 µM, first compound 0.1 µM
[39] = second compound 10 µM, first compound 0.316 µM
[40] = second compound 10 µM, first compound 1 µM
[41] = second compound 10 µM, first compound 3.16 µM
[42] = second compound 10 µM, first compound 10 µM
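Further: spheroids exposed to drugs for 7 days before readout.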
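Wherever viability, T/C is given: 100% = DMSO vehicle control wells.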

COC1C=CCC(C)C(C)S(=O)(=O)NC(=O)c2ccc3c(c2)N(CC2CCC21)CC1(CCCc2cc(Cl)ccc21)CO3 (stereo not given) + CN1CCN(c2cc(C(=O)Nc3cc4cc(-c5cnn(C)c5)ccc4cn3)ccn2)CC1
< 31.6 nM: IC50 [3] | IC50 [4] | IC50 [5] | IC50 [6]
212 nM: IC50 [2]
active: viability, T/C [19] 4.28% | viability, T/C [20] 3.17% | viability, T/C [21] 2.26% | viability, T/C [22] 1.91% | viability, T/C [23] 1.34% | viability, T/C [24] 0.56% | viability, T/C [25] 0.93% | viability, T/C [26] 0.64% | viability, T/C [27] 25.5% | viability, T/C [28] 0.78% | viability, T/C [29] 25.2% | viability, T/C [30] 2.2% | viability, T/C [31] 1.34% | viability, T/C [32] 1.14% | viability, T/C [33] 1.59% | viability, T/C [34] 1.26% | viability, T/C [35] 1.14% | viability, T/C [36] 0.26% | viability, T/C [37] 1.69% | viability, T/C [38] 1.52% | viability, T/C [39] 2.33% | viability, T/C [40] 26.3% | viability, T/C [41] 1.84% | viability, T/C [42] 1.78%
inactive: viability, T/C [7] 93.9% | viability, T/C [8] 96.6% | viability, T/C [9] 97.6% | viability, T/C [10] 96.3% | viability, T/C [11] 96.7% | viability, T/C [12] 33.5% | viability, T/C [13] 56.9% | viability, T/C [14] 51.1% | viability, T/C [15] 47.6% | viability, T/C [16] 39% | viability, T/C [17] 38.6% | viability, T/C [18] 18.8%
7390 nM: IC50 [1]

C=C(F)C(=O)N1CCN(c2nc(OCC3CCCN3C)nc3c2CCN(c2cccc4cccc(Cl)c24)C3)CC1CC#N (stereo not given) + CN1CCN(c2cc(C(=O)Nc3cc4cc(-c5cnn(C)c5)ccc4cn3)ccn2)CC1
< 31.6 nM: IC50 [3] | IC50 [4] | IC50 [5] | IC50 [6]
active: viability, T/C [12] 9.9% | viability, T/C [18] 4.78% | viability, T/C [19] 4.71% | viability, T/C [20] 4.05% | viability, T/C [21] 6.86% | viability, T/C [22] 5.08% | viability, T/C [23] 3.01% | viability, T/C [24] 0.46% | viability, T/C [25] 1.31% | viability, T/C [26] 1.26% | viability, T/C [27] 0.91% | viability, T/C [28] 1.47% | viability, T/C [29] 1.43% | viability, T/C [30] 0.85% | viability, T/C [31] 1.01% | viability, T/C [32] 1.11% | viability, T/C [33] 2.16% | viability, T/C [34] 1.83% | viability, T/C [35] 1.72% | viability, T/C [36] 0.4% | viability, T/C [37] 0.93% | viability, T/C [38] 1.28% | viability, T/C [39] 2.22% | viability, T/C [40] 1.62% | viability, T/C [41] 1.63% | viability, T/C [42] 1.23%
3190 nM: IC50 [2]
4840 nM: IC50 [1]
inactive: viability, T/C [7] 82.8% | viability, T/C [8] 93.9% | viability, T/C [9] 82.3% | viability, T/C [10] 95.2% | viability, T/C [11] 73.6% | viability, T/C [13] 47.9% | viability, T/C [14] 51.7% | viability, T/C [15] 50.4% | viability, T/C [16] 51.6% | viability, T/C [17] 50.4%

CC(Nc1ccc2c(c1)OCCn1cc(N3C(=O)OCC3C(F)F)nc1-2)C(N)=O (stereo not given) + CN1CCN(c2cc(C(=O)Nc3cc4cc(-c5cnn(C)c5)ccc4cn3)ccn2)CC1
inactive: viability, T/C [7] 88.6% | viability, T/C [8] 79% | viability, T/C [9] 56.9% | viability, T/C [10] 50% | viability, T/C [11] 38.6% | viability, T/C [12] 28.6% | viability, T/C [13] 43% | viability, T/C [14] 41.3% | viability, T/C [15] 32.6% | viability, T/C [16] 25.1% | viability, T/C [17] 21.5% | viability, T/C [18] 15.5%
862 nM: IC50 [1]
active: viability, T/C [19] 3.15% | viability, T/C [20] 3.14% | viability, T/C [21] 3.55% | viability, T/C [22] 2.62% | viability, T/C [23] 2.92% | viability, T/C [24] 3.77% | viability, T/C [25] 0.54% | viability, T/C [26] 0.79% | viability, T/C [27] 1.03% | viability, T/C [28] 0.19% | viability, T/C [29] 0.18% | viability, T/C [30] 1.05% | viability, T/C [31] 0.69% | viability, T/C [32] 2.49% | viability, T/C [33] 1.55% | viability, T/C [34] 2.4% | viability, T/C [35] 2.04% | viability, T/C [36] 0.86% | viability, T/C [37] 1.76% | viability, T/C [38] 0.59% | viability, T/C [39] 1.6% | viability, T/C [40] 0.79% | viability, T/C [41] 0.45% | viability, T/C [42] 1.26%
< 31.6 nM: IC50 [2] | IC50 [3] | IC50 [4] | IC50 [5] | IC50 [6]

Nc1ccn(C2OC(CO)C(O)C2(F)F)c(=O)n1 (stereo not given)
< 31.6 nM: IC50 (curve of compound)
12.8% and 8.55%: viability, T/C (compound 0.0316 µM)
active: viability, T/C (compound 0.1 µM) 7.47% and 6.97% | viability, T/C (compound 0.316 µM) 7.3% and 6.5% | viability, T/C (compound 1 µM) 6.05% and 6.36% | viability, T/C (compound 3.16 µM) 6.22% and 8.41% | viability, T/C (compound 10 µM) 7.04% and 6.47%

CC(CO)NC(=O)c1cc(-c2ccc(Cl)cc2)nn(-c2cnn(C)c2)c1=O (stereo not given) + CN1CCN(c2cc(C(=O)Nc3cc4cc(-c5cnn(C)c5)ccc4cn3)ccn2)CC1
> 10000 nM: IC50 [1]
319 nM: IC50 [2]
active: viability, T/C [19] 5.52% | viability, T/C [20] 5.79% | viability, T/C [21] 7.05% | viability, T/C [22] 8.98% | viability, T/C [23] 8.34% | viability, T/C [24] 8.71% | viability, T/C [25] 1.36% | viability, T/C [26] 1.36% | viability, T/C [27] 2.15% | viability, T/C [28] 1.19% | viability, T/C [29] 1.66% | viability, T/C [30] 1.71% | viability, T/C [31] 1.12% | viability, T/C [32] 1.53% | viability, T/C [33] 2.58% | viability, T/C [34] 1.7% | viability, T/C [35] 2.81% | viability, T/C [36] 2.69% | viability, T/C [37] 1.23% | viability, T/C [38] 1.96% | viability, T/C [39] 2.08% | viability, T/C [40] 2.68% | viability, T/C [41] 1.84% | viability, T/C [42] 2.5%
< 31.6 nM: IC50 [3] | IC50 [4] | IC50 [5] | IC50 [6]
inactive: viability, T/C [7] 94.8% | viability, T/C [8] 81.7% | viability, T/C [9] 69.5% | viability, T/C [10] 68.8% | viability, T/C [11] 67.5% | viability, T/C [12] 57.3% | viability, T/C [13] 53.9% | viability, T/C [14] 52.5% | viability, T/C [15] 49% | viability, T/C [16] 46.2% | viability, T/C [17] 49.5% | viability, T/C [18] 43.7%
